Here are results for 3 molecules from article PMC7926495, “Preclinical Pharmacokinetics and Biodistribution of Anticancer Dinuclear Palladium(II)-Spermine Complex (Pd2Spm) in Mice” (Pharmaceuticals, 2021).

The conditions of data set [1]: mouse, in vivo.
Procedure: After drug administration, five animals from each group were euthanized at selected time-points (0.5, 1, 6, 12, 24 and 48 h) with pentobarbital intraperitoneal injection (120 mg/kg) followed by cardiac puncture for blood collection. Blood serum was separated after leaving the blood to coagulate for 30 min at room temperature and centrifugation (at 500× g, and 4 °C for 15 min). […] Both blood serum and serum ultrafiltrate were aliquoted (50 μL) and stored at −80 °C until ICP-MS analysis. Right brain hemisphere, liver, lungs, heart, right kidney, ovaries, abdominal white adipose tissue and abdominal mammary glands were excised at the same time, washed in cold PBS, blotted dry on filter paper and weighed. […]
The mean concentrations of Pd or Pt in serum and serum ultrafiltrate were plotted logarithmically versus time. […] The area under the curve (AUC) from time zero to the last time with quantified concentration (AUC0-48h) was calculated by a linear log trapezoidal (linear up log down) method. […] The drug half-life (t1/2) was calculated as ln2/λz. The rate of total clearance (CL/F) of the compound was calculated as the administered metal dose divided by the AUC0−∞. The distribution volume based on the terminal phase (Vz/F) was calculated as dose/[λz.AUC0−∞].
A further data set has as its system H2AX histone (γH2AX). More on the design: method as in PMID 21371266. The following applies: cited from earlier work.
Details of data set [2]: species or system Balb/c mice. The conditions noted are these: mouse, in vivo; for Tmax: ip.
Procedure: After drug administration, five animals from each group were euthanized at selected time-points (0.5, 1, 6, 12, 24 and 48 h) with pentobarbital intraperitoneal injection (120 mg/kg) followed by cardiac puncture for blood collection. Blood serum was separated after leaving the blood to coagulate for 30 min at room temperature and centrifugation (at 500× g, and 4 °C for 15 min). […] Both blood serum and serum ultrafiltrate were aliquoted (50 μL) and stored at −80 °C until ICP-MS analysis. Right brain hemisphere, liver, lungs, heart, right kidney, ovaries, abdominal white adipose tissue and abdominal mammary glands were excised at the same time, washed in cold PBS, blotted dry on filter paper and weighed. Solid tissues were freeze-dried (0.016 mBar, −80.8 °C, 48 h; Telstar®, model Cryodos Barcelona, Spain) and stored hermetically sealed at −80 °C until ICP-MS analysis.
Briefly, 50 μL of blood serum, 50 μL of serum ultrafiltrate and weighed entire freeze-dried organs/tissues (up to 50 mg) were placed into 10 mL polypropylene conical tubes. In the case of liver, for which the weight surpassed 50 mg, the tissue was first pulverized with a Precellys® Evolution tissue homogenizer (Bertin-Instruments, Montigny-le-Bretonneux, France) using 2.8 mm stainless steel beads (two cycles of 10 s at 6000 rpm speed) and accurately weighed (50 mg) in tubes. Samples were digested directly in tubes with 0.9 mL of HNO3 (≥69.0% w/w) plus 0.3 mL of HCl (37% w/w) in a water bath at 90 °C for 1 h. Sample digests were cooled to room temperature, 0.5 mL of a 100 µg/L internal standards (IS) solution was added and the final volume was adjusted to 5 mL with ultrapure water (final concentration of IS = 10 µg/L). Prior to ICP-MS analysis, samples were further diluted 5-fold with a diluent solution (2% HNO3 + 3% HCl + 10 µg/L IS). An iCAP^TM Q (Thermo Fisher Scientific, Bremen, Germany) ICP-MS was used for the determination of Pd and Pt in the obtained solutions. Calibration standards ranging from 0.025 to 100 µg/L were prepared from the 100 mg/L multi-element commercial TraceCERT®, ICH Q3D oral, Standard 2 solution. The IS solution was prepared at 100 µg/L by appropriate dilution of the ICP-MS-200.8-IS-1 solution.
The mean concentrations of Pd or Pt in serum and serum ultrafiltrate were plotted logarithmically versus time. Non-compartmental analysis was performed on sparse data with 1/Y^2 weighting, which was selected based on the highest correlation coefficients and agreement between observed versus predicted pharmacokinetic parameters. […] The area under the curve (AUC) from time zero to the last time with quantified concentration (AUC0-48h) was calculated by a linear log trapezoidal (linear up log down) method. The AUC from time zero to infinity (AUC0−∞) was extrapolated as AUC0−48 h + C48h/λz, where C48h is the last measured concentration, and λz is the elimination constant rate calculated using linear regression of the terminal portion of the log–linear serum concentration–time curve. The drug half-life (t1/2) was calculated as ln2/λz. The rate of total clearance (CL/F) of the compound was calculated as the administered metal dose divided by the AUC0−∞. The distribution volume based on the terminal phase (Vz/F) was calculated as dose/[λz.AUC0−∞].
For another data set, the system named is MDA-MB-231 cells. Briefly: In vitro cellular drug uptake/accumulation by ICP-MS. Type of data set: cell-based, human. The following applies: 24 h; for dependence of cellular drug uptake on drug concentration in medium: 2-8 µM. The protocol:
(§1) The in vitro studies were performed on human triple-negative (lack of estrogen receptors, progesterone receptors and HER2 overexpression) breast cancer cell lines MDA-MB-231 and HCC-1143, which were purchased from the Leibniz Institute DSMZ-German Collection of Microorganisms and Cell Cultures GmbH, Germany. MDA-MB-231 were cultured in DMEM-HG cell culture medium supplemented with 10% (v/v) FBS, and HCC-1143 cells were cultured in RPMI-1640 cell culture medium supplemented with 20% (v/v) FBS. Cells were maintained in a sterile environment at 37 °C with a 5% CO2 humidified atmosphere and were routinely tested for mycoplasma contamination.
(§2) The intracellular Pt and Pd accumulation in MDA-MB-231 and HCC-1143 cells was analyzed using ICP-MS. First, 3 × 10^4/cm^2 cells were seeded in T75 culture flasks and allowed to attach for 24 h. […] The cells were trypsinized, washed twice with ice-cold 0.9% saline solution, and 10^6 cells were pelleted and freeze-dried. The lyophilized cell pellets were digested and analyzed using the same analytical procedure described for the pharmacokinetic study. […] The protein concentration used for the data normalization was determined from identical samples that were prepared in parallel and quantified with the Bradford protein assay.

The subject of the next data set is HCC-1143 cells. The data set is described as above. Type of data set: cell-based, human. The following applies: 24 h; for dependence of cellular drug uptake on drug concentration in medium: 2-8 µM. The protocol:
as §1, §2

The test system of the next data set is plasma proteins. The conditions noted are these: mouse, in vivo.
The test system of data set [3] is albumin / plasma proteins. The conditions noted are these: rodents, 3 h post-administration; cited from earlier work.

In the case of `[Cl][Pd-2]1([Cl])[NH2+]CCC[NH+]1CCCC[NH+]1CCC[NH2+][Pd-2]1([Cl])[Cl]` (stereo not drawn) [Pd2Spm], the “higher accumulation of Pd relative to Pt” value in data set [1] came to 74.2%. Moreover, in data set [1], the “lower accumulation of Pd than Pt (dose-normalized AUC)” value is 82.7%. Besides, the “phosphorylation of H2AX histone (γH2AX) compared to cisplatin” value in the data set with H2AX histone (γH2AX) is “more extensive phosphorylation of H2AX histone”. For the same molecule, the “concentration of free Pd/Pt in serum ultrafiltrate at 48 h” value in data set [2] turned out to be 2.3 ng/mL. Also, the time to peak (Tmax) (commonly the time at which the peak concentration occurs) in data set [2] stood at 30 min. Moreover, the “dependence of cellular drug uptake on drug concentration in medium” value (“dependence of cellular drug uptake” below) in the data set on MDA-MB-231 cells and in the data set on HCC-1143 cells was “increase linearly with drug concentration” throughout. For the same molecule, the “intracellular accumulation compared to cisplatin” value in the data set with MDA-MB-231 cells (equimolar 2-8 µM) and in the data set on HCC-1143 cells (equimolar 2-8 µM) was “lower intracellular Pd2Spm increase as compared to cisplatin” throughout. For the same molecule, the “decrease of fraction bound to plasma proteins at 48 h compared to the preceding period” value in the data set with plasma proteins was found to be 3.1%.

`O=C(O)C(=O)O.[NH-][C@@H]1CCCC[C@H]1[NH-].[Pt+2]` [oxaliplatin]: the “bound to albumin (mostly via irreversible covalent bonds)” value in data set [3] was greater than 85%.

Turning to `N.N.[Cl][Pt][Cl]` [Cisplatin, cis-dichlorodiammine platinum(II), reference compound], in data set [2], the “concentration of free Pd/Pt in serum ultrafiltrate at 48 h” value is reported as 4.1 ng/mL and the Tmax was 30 min. The “dependence of cellular drug uptake” value in the data set on MDA-MB-231 cells is listed as “increase linearly with drug concentration”. The “dependence of cellular drug uptake” value with HCC-1143 cells is given as “increase linearly with drug concentration”.
